From patent publication US20230405003A1, “APPLICATION OF THYMIDINE DERIVATIVE IN PREPARATION OF DRUGS” (ONQUALITY PHARMACEUTICALS CHINA LTD., priority 2020, published 2023)

Columns and labels:
HaCaT cells = experiment: Relief of 5-FU proliferative toxicity to HaCaT cells (CCK-8 cell survival); type: cell-based; conditions: for activation at 10 µM: compound 10 μM; for activation at 100 µM: compound 100 μM; for activation at 500 µM: compound 500 μM; for activation at 1000 µM: compound 1000 μM; for Cell Survival Rate (increased percentage of cell survival compared with the Group of 5-FU): 5-Fu 20 μM, HaCaT cells; for activation at 1 µM: compound 1 μM
How it was run: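 HaCaT keratinocytes (5000–10000/well) cultured 24 h, then exposed 48 h to 5-FU alone or with thymidine derivative, or thymidine plus uridine derivative mix, versus solvent-matched blanks. Survival by CCK-8; value is % increase in survival over 5-FU alone, t-test.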

[1] = test system: hand-foot syndrome caused by Acelarin (NUC-1031) in rats; experiment: Rat model of hand-foot syndrome caused by Acelarin (NUC-1031), gel application; type: in vivo; conditions: Acelarin (NUC-1031) 130 mg/kg intraperitoneal injection twice a week, gel 3 wt%, 30 days
Experimental: After SD rats were fed and adapted for one week (about 200 g), the rats were divided into groups, with 10 rats in each group. Then, the rats were subject to gavage administration. Capecitabine was dissolved in a 1:1 mixed solution of castor oil and ethanol and diluted for three times with PBS buffer. After gavage, the rats were fixed with a fixed cylinder, and a gel of thymidine derivative (or a compounded gel of thymidine derivative and uridine derivative) was applied to double hind paws (about 1 cm*3 cm) of the rats in group of administration (the types and concentrations are shown in Table 4), and a blank gel was applied to the group of blank (as a blank control). After approximately 4 hours of application, the rats were released after 4 hours, wiped with clean water to remove any residual drug at the application site, and allowed back to the cage. The thymidine derivative gel (or the compounded gel of thymidine derivative and uridine derivative) was administered with gavage every day. The gavage and application tests are repeated daily until the group of blank has developed obvious hand-foot syndrome.
The effects of thymidine derivative or a combination of thymidine derivative and uridine derivative on the chemotherapeutic drug-induced hand-foot syndrome in a rat model were tested according to the method in Examples 30-40. At the same time, paws of rats after treatment with the drug were taken and observed for their inflammation by hematoxylin-eosin staining (HE) and immunohistochemical staining (IHC).
The test thymidine derivative or the combination of thymidine derivative and uridine derivative, as well as the final concentration of the test compounds were shown in Table 8. Table 8 lists the animal experiment combination of a chemotherapeutical drug and the thymidine derivative gel (or the compound gel of thymidine derivative and uridine derivative) and the corresponding experimental results (wherein, the data in the column of control rate=the occurrence rate of hand-foot syndrome in Group of blank—the occurrence rate of hand-foot syndrome in Group of administration).

[2] = Homo sapiens, HaCaT, increase vs Group of 5-FU, 5-FU 20 μM, 48 h, read-out: Cell Survival Rate
[3] = selected compound final concentration 3.13 μM
[4] = selected compound final concentration 6.25 μM
[5] = selected compound final concentration 12.5 μM
[6] = selected compound final concentration 25 μM
[7] = selected compound final concentration 50 μM
[8] = selected compound final concentration 0.8 μM
[9] = selected compound final concentration 1.6 μM

| SMILES | activation at 10 µM (HaCaT cells; [2]) [%] | activation at 100 µM (HaCaT cells; [2]) [%] | activation at 500 µM (HaCaT cells; [2]) [%] | activation at 1000 µM (HaCaT cells; [2]) [%] | Control Rate Forepaws [1] [%] | Control Rate Hindpaws [1] [%] | Cell Survival Rate (increased percentage of cell survival compared with the Group of 5-FU) (HaCaT cells; [3]) | Cell Survival Rate (increased percentage of cell survival compared with the Group of 5-FU) (HaCaT cells; [4]) | Cell Survival Rate (increased percentage of cell survival compared with the Group of 5-FU) (HaCaT cells; [5]) | Cell Survival Rate (increased percentage of cell survival compared with the Group of 5-FU) (HaCaT cells; [6]) | Cell Survival Rate (increased percentage of cell survival compared with the Group of 5-FU) (HaCaT cells; [7]) | Cell Survival Rate (increased percentage of cell survival compared with the Group of 5-FU) (HaCaT cells; [9]) | further results |
| --- | --- | --- | --- | --- | --- | --- | --- | --- | --- | --- | --- | --- | --- |
| CC(=O)OCC1OC(n2cc(C)c(=O)[nH]c2=O)CC1OC(C)=O (stereo not drawn) [T1] | 10 to 16 | 31 to 37 | 36 to 41 | 35 to 42 |  |  |  |  |  |  |  |  | activation at 5 µM (HaCaT cells; Homo sapiens, HaCaT, increase vs Group of 5-FU, 5-FU 20 μM, compound 5 μM, 48 h, read-out: Cell Survival Rate): 1 to 6%; activation at 50 µM (HaCaT cells; Homo sapiens, HaCaT, increase vs Group of 5-FU, 5-FU 20 μM, compound 50 μM, 48 h, read-out: Cell Survival Rate): 21 to 26%; activation at 200 µM (HaCaT cells; Homo sapiens, HaCaT, increase vs Group of 5-FU, 5-FU 20 μM, compound 200 μM, 48 h, read-out: Cell Survival Rate): 42 to 48%; activation at 1500 µM (HaCaT cells; Homo sapiens, HaCaT, increase vs Group of 5-FU, 5-FU 20 μM, compound 1500 μM, 48 h, read-out: Cell Survival Rate): 29 to 33%; activation at 3000 µM (HaCaT cells; Homo sapiens, HaCaT, increase vs Group of 5-FU, 5-FU 20 μM, compound 3000 μM, 48 h, read-out: Cell Survival Rate): 17 to 23% |
| Cc1cn([C@H]2C[C@H](O)[C@@H](COC(=O)[C@H](C)c3ccc(CC(C)C)cc3)O2)c(=O)[nH]c1=O [T32] |  |  |  |  | 50 | 62.50 | 35%-41% | 29%-36% | 46%-52% | 53%-60% | 59%-66% |  | Cell Survival Rate (increased percentage of cell survival compared with the Group of 5-FU) (HaCaT cells; selected compound final concentration 100 μM): 78%-85% |
| CC1=C(CC(=O)OC[C@H]2O[C@@H](n3cc(C)c(=O)[nH]c3=O)C[C@@H]2O)c2cc(F)ccc2/C1=C\c1ccc([S+](C)[O-])cc1 (stereo partly drawn) [T40] |  |  |  |  | 50 | 62.50 | 45%-52% | 47%-56% | 49%-54% | 58%-65% | 48%-55% | 57%-65% | Cell Survival Rate (increased percentage of cell survival compared with the Group of 5-FU) (HaCaT cells; [8]): 42%-50% |
| Cc1ccc(C(=O)c2ccc(CC(=O)O[C@H]3C[C@H](n4cc(C)c(=O)[nH]c4=O)O[C@@H]3CO)n2C)cc1 [T45] |  |  |  |  |  |  | 63%-70% | 59%-67% | 48%-55% | 44%-51% | 39%-46% | 39%-46% | Cell Survival Rate (increased percentage of cell survival compared with the Group of 5-FU) (HaCaT cells; [8]): 34%-41% |
| Cc1cn([C@H]2C[C@H](OC(=O)C(C)c3cccc(C(=O)c4ccccc4)c3)[C@@H](CO)O2)c(=O)[nH]c1=O (stereo partly drawn) [T50] |  |  |  |  |  |  |  |  |  |  |  |  | Cell Survival Rate (increased percentage of cell survival compared with the Group of 5-FU) (HaCaT cells; selected compound final concentration 2 μM): 13%-20%; Cell Survival Rate (increased percentage of cell survival compared with the Group of 5-FU) (HaCaT cells; selected compound final concentration 4 μM): 26%-33%; Cell Survival Rate (increased percentage of cell survival compared with the Group of 5-FU) (HaCaT cells; selected compound final concentration 8 μM): 36%-43%; Cell Survival Rate (increased percentage of cell survival compared with the Group of 5-FU) (HaCaT cells; selected compound final concentration 16 μM): 47%-53%; Cell Survival Rate (increased percentage of cell survival compared with the Group of 5-FU) (HaCaT cells; selected compound final concentration 32 μM): 68%-76%; Cell Survival Rate (increased percentage of cell survival compared with the Group of 5-FU) (HaCaT cells; selected compound final concentration 62.5 μM): 74%-82%; Cell Survival Rate (increased percentage of cell survival compared with the Group of 5-FU) (HaCaT cells; selected compound final concentration 125 μM): 75%-85%; Cell Survival Rate (increased percentage of cell survival compared with the Group of 5-FU) (HaCaT cells; selected compound final concentration 250 μM): 75%-82%; Cell Survival Rate (increased percentage of cell survival compared with the Group of 5-FU) (HaCaT cells; selected compound final concentration 500 μM): 65%-73%; Cell Survival Rate (increased percentage of cell survival compared with the Group of 5-FU) (HaCaT cells; selected compound final concentration 1000 μM): 58%-65% |
| Cc1cn([C@H]2C[C@H](O)[C@@H](COC(=O)C(C)c3cccc(Oc4ccccc4)c3)O2)c(=O)[nH]c1=O (stereo partly drawn) [T27, ((2R,3S, 5R)-3-hydroxyl-5-(5-methyl-2,4-dioxy-3,4-dihydropyrimidin-1(2H)-yl)tetrahydrofuran-2-yl)2-(3-phenoxyphenyl)propionate Methyl] |  |  |  |  |  |  | 51%-58% | 54%-61% | 51%-59% | 49%-57% | 46%-53% | 39%-45% |  |
| COc1ccc2cc([C@H](C)C(=O)OC[C@H]3O[C@@H](n4cc(C)c(=O)[nH]c4=O)C[C@@H]3O)ccc2c1 [T25] |  |  |  |  | 57.14 | 42.86 |  |  |  |  |  |  |  |
| Cc1ccc(C(=O)c2ccc(CC(=O)OC[C@H]3O[C@@H](n4cc(C)c(=O)[nH]c4=O)C[C@@H]3O)n2C)cc1 [T36] |  |  |  |  |  |  | 27%-35% | 38%-46% | 52%-60% | 53%-61% | 49%-57% |  |  |
| CC(=O)OC[C@H]1O[C@@H](n2cc(C)c(=O)[nH]c2=O)C[C@@H]1O [T3] | 30 to 38 | 80 to 86 | 69 to 75 | 58 to 65 |  |  |  |  |  |  |  |  | activation at 1 µM (HaCaT cells; [2]): 13 to 18% |
| CC(=O)O[C@H]1C[C@H](n2cc(C)c(=O)[nH]c2=O)O[C@@H]1CO [T2] | 35 to 45 | 70 to 80 | 75 to 85 | 60 to 70 |  |  |  |  |  |  |  |  | activation at 1 µM (HaCaT cells; [2]): 14 to 18% |
